Laboratory results published in PubChem BioAssay AID1963964 (Molecular Pharmacology Branch, DTP, NCI, 2024).

Test system: 997726-040-R-J2-PDC tumor spheroids, viability
Assay: Anticancer human tumor 997726-040-R-J2-PDC patient-derived squamous cell lung carcinoma cell line growth inhibition [PI3K]
Conditions: spheroids with HUVEC and MSC; for IC50: curve of first compound; for viability, T/C: stronger effect = lower value
Text: Combinatorial screen of targeted agents with the PI3K inhibitors inavolisib, alpelisib, duvelisib, and copanlisib in multi-cell type tumor spheroids
A high-throughput screen of multi-cell type tumor spheroids was designed to identify active combinations of targeted small molecules and PI3K pathway inhibitors. Complex spheroids include a stromal component modeled by human endothelial cells (HUVEC) and fibroblasts modeled by human mesenchymal stem cells (MSCs). The concentration ranges selected for each drug and investigational agent were based upon clinically achievable concentrations if the clinical Cmax of the agent was known.
Compounds. The drugs and investigational agents: inavolisib (NSC800729), alpelisib (NSC765974), duvelisib (NSC772469), copanlisib (NSC816437), ipatasertib (NSC767898), afuresertib (NSC778305), talazoparib (NSC767125), sapanisertib (NSC764658), selumetinib (NSC741078), tovorafenib (DAY101, NSC766906), vemurafenib (NSC761431), ravoxertinib (NSC781343), sotorasib (NSC818433), MRTX1133 (NSC 836407), abemaciclib (NSC 768073), palbociclib (NSC758247), venetoclax (NSC 766270), SY5609 (NSC837396), enzalutamide (NSC755605), and darolutamide (NSC825331), were obtained from the National Cancer Institute (NCI) Developmental Therapeutics Program Chemical Repository. The FDA-approved anticancer drug set is available from the NCI Developmental Therapeutics Program. […] The stock solutions were prepared in dimethyl sulfoxide (DMSO, Sigma-Aldrich, St. Louis, MO, cat. D2650) at 800-fold the tested concentration and stored at -70 degrees C prior to their use. All drugs and investigational agents were tested over a range starting from a high concentration at or near the clinical Cmax and decreasing in half-log increments. If the clinical Cmax for an agent had not been determined, the highest concentration tested was 10 microM.
Cell Culture. All cells were maintained in an incubator at 37 degrees C and 5% CO2 with 95% humidity. The PDC lines were cultured according to standard operating procedures established by the NCI PDMR (https://pdmr.cancer.gov/sops/default.htm). All PDCs were thawed and cultured in Matrigel-coated flasks prepared with a working solution of 1X Ham's F-12 nutrient mix, without supplementation (Invitrogen, Waltham, MA, cat. 11765054), 100 U/mL penicillin-streptomycin (Invitrogen, cat. 15140122), and 2.5% Matrigel (Corning Inc., Corning, NY, cat. 354248) for the first three passages. The 354836-022-R-J1-PDC, 475296-252-R-J1-PDC, and 997726-040-R-J2-PDC lines were cultured in 6A media, which includes advanced DMEM/F-12 (Thermo Fisher Scientific, cat. 12634028), 10 mM HEPES (Thermo Fisher Scientific, cat. 15630080), 1X GlutaMAX supplement (Thermo Fisher Scientific, cat. 35050061), 0.1 mg/mL primocin (InvivoGen, San Diego, CA, cat. ant-pm-2), 10% defined fetal bovine serum, heat inactivated (HyClone Laboratories Inc., Logan, UT, cat. SH30070.03HI), 50% L-WRN conditioned media (ATCC, cat. CRL-3276), 1.25 mM N-Acetyl-L-cysteine (Sigma-Aldrich, cat. A9165), 10 mM nicotinamide (Sigma-Aldrich, cat. N0636), 1X B-27 supplement (Thermo Fisher Scientific, cat. 17504044), 1X N-2 supplement (Thermo Fisher Scientific, cat. 17502048), and 10 microM Y-27632 dihydrochloride (Tocris Bioscience, Bristol, United Kingdom, cat. 1254). The 624824-186-R-J2-PDC line was cultured in 6C/Colon 1B media, which includes all 6A media components plus 50 ng/mL human EGF recombinant protein (Thermo Fisher Scientific, cat. PHG0311). […]

[1] = second compound 0.00316 µM, first compound 0.0316 µM
[2] = second compound 0.00316 µM, first compound 0.1 µM
[3] = second compound 0.01 µM, first compound 0.0316 µM
[4] = second compound 0.01 µM, first compound 0.1 µM
[5] = second compound 0.0316 µM, first compound 0.0316 µM
[6] = second compound 0.0316 µM, first compound 0.1 µM
[7] = second compound 0.1 µM, first compound 0.0316 µM
[8] = second compound 0.1 µM, first compound 0.1 µM
[9] = second compound 0.316 µM, first compound 0.0316 µM
[10] = second compound 0.316 µM, first compound 0.1 µM
[11] = second compound 1 µM, first compound 0.0316 µM
[12] = second compound 1 µM, first compound 0.1 µM
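Also: spheroids exposed to compounds for seven days before readout.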

For `CC(C)NCC(C(=O)N1CCN(c2ncnc3c2C(C)CC3O)CC1)c1ccc(Cl)cc1` (centres undefined) + CC(Nc1ccc2c(c1)OCCn1cc(N3C(=O)OCC3C(F)F)nc1-2)C(N)=O, the IC50 (second compound 0.00316 µM) was 269 nM, the IC50 (second compound 0.01 µM) was 233 nM and the IC50 (second compound 0.0316 µM) was 149 nM. It also gave an IC50 (second compound 0.1 µM) of 35.8 nM, an IC50 (second compound 0.316 µM) of less than 31.6 nM and an IC50 (second compound 1 µM) of less than 31.6 nM. It also gave a viability, T/C [1] of 77.7%, a viability, T/C [2] of 68.9% and a viability, T/C (second compound 0.00316 µM, first compound 0.316 µM) of 45.2%. It also gave a viability, T/C (second compound 0.00316 µM, first compound 1 µM) of 27.8%, a viability, T/C (second compound 0.00316 µM, first compound 3.16 µM) of 10.2% and a viability, T/C (second compound 0.00316 µM, first compound 10 µM) of 9.8%. For the same compound, the viability, T/C [3] was 71.5%, the viability, T/C [4] was 65.8% and the viability, T/C (second compound 0.01 µM, first compound 0.316 µM) was 41.3%. For the same compound, the viability, T/C (second compound 0.01 µM, first compound 1 µM) was 30.3%, the viability, T/C (second compound 0.01 µM, first compound 3.16 µM) was 10.5% and the viability, T/C (second compound 0.01 µM, first compound 10 µM) was 7.89%. The viability, T/C [5] was 53.3%, the viability, T/C [6] was 57.7% and the viability, T/C (second compound 0.0316 µM, first compound 0.316 µM) was 41.3%. It also gave a viability, T/C (second compound 0.0316 µM, first compound 1 µM) of 26.6%, a viability, T/C (second compound 0.0316 µM, first compound 3.16 µM) of 12.4% and a viability, T/C (second compound 0.0316 µM, first compound 10 µM) of 8.75%. For the same compound, the viability, T/C [7] was 52.1%, the viability, T/C [8] was 37.7% and the viability, T/C (second compound 0.1 µM, first compound 0.316 µM) was 31.4%. It also gave a viability, T/C (second compound 0.1 µM, first compound 1 µM) of 22.4%, a viability, T/C (second compound 0.1 µM, first compound 3.16 µM) of 11.2% and a viability, T/C (second compound 0.1 µM, first compound 10 µM) of 6.81%. It also gave a viability, T/C [9] of 34.7%, a viability, T/C [10] of 28.8% and a viability, T/C (second compound 0.316 µM, first compound 0.316 µM) of 24.6%. It also gave a viability, T/C (second compound 0.316 µM, first compound 1 µM) of 20.6%, a viability, T/C (second compound 0.316 µM, first compound 3.16 µM) of 10.6% and a viability, T/C (second compound 0.316 µM, first compound 10 µM) of 5.02%. For the same compound, the viability, T/C [11] was 26.2%, the viability, T/C [12] was 23.6% and the viability, T/C (second compound 1 µM, first compound 0.316 µM) was 23.4%. For the same compound, the viability, T/C (second compound 1 µM, first compound 1 µM) was 16.5%, the viability, T/C (second compound 1 µM, first compound 3.16 µM) was 8.21% and the viability, T/C (second compound 1 µM, first compound 10 µM) was 5.34%.
For `Cn1ncnc1[C@H]1c2n[nH]c(=O)c3cc(F)cc(c23)N[C@@H]1c1ccc(F)cc1` + CC(Nc1ccc2c(c1)OCCn1cc(N3C(=O)OCC3C(F)F)nc1-2)C(N)=O, the IC50 (second compound 0.00316 µM) was greater than 100 nM, the IC50 (second compound 0.01 µM) was greater than 100 nM and the IC50 (second compound 0.0316 µM) was greater than 100 nM. It also gave an IC50 (second compound 0.1 µM) of less than 0.316 nM, an IC50 (second compound 0.316 µM) of less than 0.316 nM and an IC50 (second compound 1 µM) of less than 0.316 nM. The viability, T/C (second compound 0.00316 µM, first compound 0.000316 µM) was 84.4%, the viability, T/C (second compound 0.00316 µM, first compound 0.001 µM) was 99.1% and the viability, T/C (second compound 0.00316 µM, first compound 0.00316 µM) was 95.7%. The viability, T/C (second compound 0.00316 µM, first compound 0.01 µM) was 87.5%, the viability, T/C [1] was 99.7% and the viability, T/C [2] was 89.7%. For the same compound, the viability, T/C (second compound 0.01 µM, first compound 0.000316 µM) was 89.6%, the viability, T/C (second compound 0.01 µM, first compound 0.001 µM) was 92.4% and the viability, T/C (second compound 0.01 µM, first compound 0.00316 µM) was 75.9%. The viability, T/C (second compound 0.01 µM, first compound 0.01 µM) was 71.4%, the viability, T/C [3] was 84.3% and the viability, T/C [4] was 75.6%. The viability, T/C (second compound 0.0316 µM, first compound 0.000316 µM) was 63.2%, the viability, T/C (second compound 0.0316 µM, first compound 0.001 µM) was 72.9% and the viability, T/C (second compound 0.0316 µM, first compound 0.00316 µM) was 66.2%. The viability, T/C (second compound 0.0316 µM, first compound 0.01 µM) was 71.5%, the viability, T/C [5] was 70.2% and the viability, T/C [6] was 60.2%. It also gave a viability, T/C (second compound 0.1 µM, first compound 0.000316 µM) of 49.4%, a viability, T/C (second compound 0.1 µM, first compound 0.001 µM) of 39.8% and a viability, T/C (second compound 0.1 µM, first compound 0.00316 µM) of 43.6%. For the same compound, the viability, T/C (second compound 0.1 µM, first compound 0.01 µM) was 45.4%, the viability, T/C [7] was 41.8% and the viability, T/C [8] was 39%. The viability, T/C (second compound 0.316 µM, first compound 0.000316 µM) was 31.2%, the viability, T/C (second compound 0.316 µM, first compound 0.001 µM) was 36% and the viability, T/C (second compound 0.316 µM, first compound 0.00316 µM) was 32.4%. For the same compound, the viability, T/C (second compound 0.316 µM, first compound 0.01 µM) was 32.4%, the viability, T/C [9] was 33.4% and the viability, T/C [10] was 30.9%. For the same compound, the viability, T/C (second compound 1 µM, first compound 0.000316 µM) was 27.5%, the viability, T/C (second compound 1 µM, first compound 0.001 µM) was 26.7% and the viability, T/C (second compound 1 µM, first compound 0.00316 µM) was 26.6%. For the same compound, the viability, T/C (second compound 1 µM, first compound 0.01 µM) was 28.9%, the viability, T/C [11] was 31.1% and the viability, T/C [12] was 28.8%.
